Among the data in PubChem BioAssay AID504520 (The Scripps Research Institute Molecular Screening Center, 2011) are inhibition values, retold here.

Active and inactive are the calls of the source. How the calls were made is not given here.

Broadly, the inhibition is the change of the read-out against control, counted positive when it falls.

Assay in all cases: LYPLA1 inhibition and serine hydrolase selectivity, late-stage follow-up, fluorescence, gel-based ABPP, mouse proteome (AID 504520);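 further: soluble proteome from BW5147 murine T cells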
What all share (settings): FP-rhodamine fluorescence, stronger effect = higher value

Assay [1] addresses Platelet-activating factor acetylhydrolase 2, cytoplasmic (Mus musculus) (UniProt Q8VDG7).
A further assay concerns LYPLA1.
For a further assay, the system named is ABHD11.
The subject of the next assay is LYPLA2.
A further assay has as its system ESD.

Sequence of Platelet-activating factor acetylhydrolase 2, cytoplasmic (Mus musculus) (Q8VDG7 whole entry, looked up): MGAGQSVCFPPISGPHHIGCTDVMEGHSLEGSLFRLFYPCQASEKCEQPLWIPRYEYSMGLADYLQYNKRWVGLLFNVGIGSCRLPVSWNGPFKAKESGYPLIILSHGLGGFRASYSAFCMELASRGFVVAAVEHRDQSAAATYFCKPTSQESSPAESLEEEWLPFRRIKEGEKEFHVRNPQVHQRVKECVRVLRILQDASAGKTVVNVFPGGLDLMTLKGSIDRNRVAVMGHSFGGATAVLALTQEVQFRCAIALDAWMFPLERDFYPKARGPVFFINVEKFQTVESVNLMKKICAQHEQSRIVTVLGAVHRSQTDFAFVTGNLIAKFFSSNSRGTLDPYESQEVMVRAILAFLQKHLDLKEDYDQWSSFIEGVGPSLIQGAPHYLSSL

As to `O=C(N1CCCCC1)n1ncc(C(O)(c2ccccc2)c2ccccc2)n1`, the inhibition in assay [1] (PAFAH2, at 0.75 µM) is 0% (inactive); in assay [1] (PAFAH2, inhibition, at 0.03 µM) it was 0%; in assay [1] (PAFAH2, inhibition, at 0.15 µM), 0%; in the assay on LYPLA1 (at 0.75 µM), 100%; with LYPLA1 (inhibition, at 0.03 µM), 50%; in the assay with LYPLA1 (inhibition, at 0.15 µM) it was 100%. The inhibition is 100% in the assay with ABHD11 (at 0.75 µM); 100% in the assay with ABHD11 (inhibition, at 0.03 µM); 100% in the assay with ABHD11 (inhibition, at 0.15 µM); 0% (inactive) with LYPLA2 (at 0.75 µM); 0% in the assay on LYPLA2 (inhibition, at 0.03 µM); 0% in the assay with LYPLA2 (inhibition, at 0.15 µM). The inhibition in the assay on ESD (at 0.75 µM) is 25% (inactive); in the assay with ESD (inhibition, at 0.03 µM) it was 0%; with ESD (inhibition, at 0.15 µM) it was 0%.
With `O=C(N1CCCC(Cc2ccccc2)C1)n1cc(C(O)(c2ccccc2)c2ccccc2)nn1` (stereo not given), the inhibition in assay [1] (PAFAH2, at 0.75 µM) was 0% (inactive); in assay [1] (PAFAH2, inhibition, at 0.03 µM) it was 0%; in assay [1] (PAFAH2, inhibition, at 0.15 µM) it was 0%; in the assay with LYPLA1 (at 0.75 µM), 100%; in the assay with LYPLA1 (inhibition, at 0.03 µM), 0%; in the assay with LYPLA1 (inhibition, at 0.15 µM) it was 50%. Further, the inhibition was 100% in the assay on ABHD11 (at 0.75 µM); 100% in the assay on ABHD11 (inhibition, at 0.03 µM); 100% in the assay on ABHD11 (inhibition, at 0.15 µM); 25% (inactive) in the assay on LYPLA2 (at 0.75 µM); 0% in the assay on LYPLA2 (inhibition, at 0.03 µM); 0% in the assay with LYPLA2 (inhibition, at 0.15 µM). For the same compound, the inhibition was 0% (inactive) with ESD (at 0.75 µM); 0% with ESD (inhibition, at 0.03 µM); 0% with ESD (inhibition, at 0.15 µM).
Turning to `O=C(N1CCc2ccccc2C1)n1ncc(C(O)(c2ccccc2)c2ccccc2)n1`, the inhibition was 100% in assay [1] (PAFAH2, at 0.75 µM); 0% in assay [1] (PAFAH2, inhibition, at 0.03 µM); 100% in assay [1] (PAFAH2, inhibition, at 0.15 µM); 50% (inactive) in the assay on LYPLA1 (at 0.75 µM); 0% with LYPLA1 (inhibition, at 0.03 µM); 0% in the assay with LYPLA1 (inhibition, at 0.15 µM). Moreover, the inhibition with ABHD11 (at 0.75 µM) is 100%; with ABHD11 (inhibition, at 0.03 µM) it was 100%; in the assay with ABHD11 (inhibition, at 0.15 µM) it was 100%; in the assay on LYPLA2 (at 0.75 µM) it was 0% (inactive); in the assay on LYPLA2 (inhibition, at 0.03 µM), 0%; in the assay with LYPLA2 (inhibition, at 0.15 µM) it was 0%. The inhibition is 25% (inactive) in the assay with ESD (at 0.75 µM); 0% in the assay on ESD (inhibition, at 0.03 µM); 10% in the assay with ESD (inhibition, at 0.15 µM).
Regarding `O=C(N1CCCCC1)n1ncc(C(O)c2ccccc2)n1` (stereo not given), the inhibition in assay [1] (PAFAH2, at 0.75 µM) was 0% (inactive); in assay [1] (PAFAH2, inhibition, at 0.03 µM), 0%; in assay [1] (PAFAH2, inhibition, at 0.15 µM) it was 0%; in the assay on LYPLA1 (at 0.75 µM), 100%; in the assay on LYPLA1 (inhibition, at 0.03 µM), 50%; in the assay on LYPLA1 (inhibition, at 0.15 µM) it was 50%. Besides, the inhibition was 100% in the assay on ABHD11 (at 0.75 µM); 75% with ABHD11 (inhibition, at 0.03 µM); 100% with ABHD11 (inhibition, at 0.15 µM); 0% (inactive) in the assay with LYPLA2 (at 0.75 µM); 0% with LYPLA2 (inhibition, at 0.03 µM); 0% in the assay on LYPLA2 (inhibition, at 0.15 µM). Further, the inhibition was 0% (inactive) in the assay with ESD (at 0.75 µM); 0% in the assay on ESD (inhibition, at 0.03 µM); 0% in the assay on ESD (inhibition, at 0.15 µM).
Turning to `O=C(OC(c1ccccc1)c1cnn(C(=O)N2CCCCC2)n1)N1CCCCC1` (stereo not given), the inhibition in assay [1] (PAFAH2, at 0.75 µM) is 100%; in assay [1] (PAFAH2, inhibition, at 0.03 µM) it was 0%; in assay [1] (PAFAH2, inhibition, at 0.15 µM), 100%; in the assay on LYPLA1 (at 0.75 µM) it was 100%; in the assay with LYPLA1 (inhibition, at 0.03 µM), 100%; with LYPLA1 (inhibition, at 0.15 µM) it was 100%. For the same compound, the inhibition with ABHD11 (at 0.75 µM) was 100%; in the assay with ABHD11 (inhibition, at 0.03 µM) it was 100%; with ABHD11 (inhibition, at 0.15 µM) it was 100%; with LYPLA2 (at 0.75 µM), 25% (inactive); in the assay on LYPLA2 (inhibition, at 0.03 µM) it was 0%; in the assay with LYPLA2 (inhibition, at 0.15 µM), 0%. The inhibition is 50% (inactive) in the assay on ESD (at 0.75 µM); 0% in the assay with ESD (inhibition, at 0.03 µM); 25% with ESD (inhibition, at 0.15 µM).
